The record followed here is patent US11840686B2, “Modulation of prekallikrein (PKK) expression” (Ionis Pharmaceuticals, Inc., priority 2013, dated 2023).

Strand notation (5' to 3'): a small letter for the sugar, then the base; units joined by * are phosphorothioate-linked, units joined directly phosphodiester-linked; [ ] holds rarer units or linkages, { } end groups; capitals alone tell only the bases. e = 2'-O-(2-methoxyethyl) (MOE); k = constrained ethyl (cEt); [5mC] = 5-methylcytosine; d = 2'-deoxy (DNA)

This data set deals with human PKK mRNA. In words: Antisense inhibition of human PKK mRNA in HepaRG cells, 1,000 nM, MOE/deoxy/cEt oligonucleotides (Example 3). In kind it is cell-based. The protocol:
Additional antisense oligonucleotides were designed targeting a PKK nucleic acid and were tested for their effects on PKK mRNA in vitro.
The chimeric antisense oligonucleotides in the tables below were designed as deoxy, MOE and cEt gapmers. The gapmers are 16 nucleosides in length wherein the nucleoside have either a MOE sugar modification, a cEt sugar modification, or a deoxy modification. The ‘Chemistry’ column describes the sugar modifications of each oligonucleotide. ‘k’ indicates an cEt sugar modification; the number indicates the number of deoxynucleosides; otherwise, indicates a deoxynucleoside; and ‘e’ indicates a 2′-O-methoxyethyl modification. The internucleoside linkages throughout each gapmer are phosphorothioate linkages. All cytosine residues throughout each oligonucleotide are 5-methylcytosines. “Start site” indicates the 5′-most nucleoside to which the gapmer is targeted in the human gene sequence. “Stop site” indicates the 3′-most nucleoside to which the gapmer is targeted in the human gene sequence.
Cultured HepaRG™ cells at a density of 20,000 cells per well were transfected using electroporation with 1,000 nM antisense oligonucleotide. After a treatment period of approximately 24 hours, RNA was isolated from the cells and PKK mRNA levels were measured by quantitative real-time PCR. Human primer probe set RTS3454 was used to measure mRNA levels. ISIS 531231 was also included in this assay. PKK mRNA levels were adjusted according to total RNA content, as measured by RIBOGREEN®. The antisense oligonucleotides were tested in a series of experiments that had similar culture conditions. Results are presented as percent inhibition of PKK, relative to untreated control cells.

Where [1] appears, read: HepaRG cells, electroporation with 1,000 nM antisense oligonucleotide, approximately 24 hours, primer probe set RTS3454, relative to untreated control cells, experiment of Table 24.
The mark [2] stands for this setting: HepaRG cells, electroporation with 1,000 nM antisense oligonucleotide, approximately 24 hours, primer probe set RTS3454, relative to untreated control cells, experiment of Table 23.
The mark [3] stands for this setting: Table 21 experiment, HepaRG cells, electroporation with 1,000 nM antisense oligonucleotide, approx. 24 hours, PKK mRNA by RT-PCR (RTS3454), relative to untreated control cells.
The mark [4] stands for this setting: PKK mRNA, HepaRG cells, 1,000 nM antisense oligonucleotide, Table 31.
Setting [5] is: HepaRG cells, electroporation with 1,000 nM antisense oligonucleotide, approx. 24 hours, PKK mRNA by RT-PCR (RTS3454), relative to untreated control cells, Table 26 experiment.
Setting [6] is: Table 19, HepaRG cells, electroporation with 1,000 nM antisense oligonucleotide, approximately 24 hours, PKK mRNA by RT-PCR (RTS3454), relative to untreated control cells.
The mark [7] stands for this setting: Table 27, HepaRG cells, 1,000 nM antisense oligonucleotide, human PKK mRNA.
The mark [8] stands for this setting: Table 30, human PKK mRNA, HepaRG cells, 1,000 nM antisense oligonucleotide.
The mark [9] stands for this setting: Table 28, HepaRG cells, 1,000 nM antisense oligonucleotide, human PKK mRNA.
The mark [10] stands for this setting: HepaRG cells, electroporation with 1,000 nM antisense oligonucleotide, approx. 24 hours, PKK mRNA by RT-PCR (RTS3454), relative to untreated control cells, Table 25 experiment.

As for “548026 (eG*eT*k[5mC]*d[5mC]*dT*dA*dT*dG*dA*dG*dT*dG*dA*k[5mC]*k[5mC]*e[5mC]; antisense) [compound 548026]”, the “% inhibition” value under setting [1] is on record as 52%.
In the case of “547957 (eG*eG*kT*dT*dA*dA*dA*dA*dG*dG*d[5mC]*dT*dA*kT*kA*eT; antisense) [compound 547957]”, the “% inhibition” value under setting [2] was 6%.
“547820 (eT*e[5mC]*kA*dT*dT*dG*dA*dT*dT*dG*dA*dA*d[5mC]*kT*kT*eG; antisense) [compound 547820]”: the “% inhibition” value under setting [3] stood at 0%.
With “548669 (antisense eA*eA*kT*dG*d[5mC]*dA*dG*dG*d[5mC]*d[5mC]*dA*dG*d[5mC]*kA*kT*e[5mC]) [compound 548669]”, under setting [4], the “% inhibition” value is 42%.
In the case of “547988 (antisense eT*eG*kA*d[5mC]*dA*dG*d[5mC]*dG*dA*dA*dT*d[5mC]*dA*kT*k[5mC]*eT) [compound 547988]”, the “% inhibition” value under setting [2] is listed as 56%.
For “548231 (eA*eA*kT*dA*d[5mC]*dT*d[5mC]*dA*dT*dT*dG*dT*dT*kG*kT*eG; antisense) [compound 548231]”, under setting [5], the “% inhibition” value stood at 11%.
For the substance “548113 (antisense eG*eG*kT*dG*dA*d[5mC]*dT*dG*d[5mC]*dA*dT*d[5mC]*dT*kG*kA*eG) [compound 548113]”, the “% inhibition” value under setting [6] is recorded as 56%.
Regarding “548628 (antisense eG*eT*kA*dT*dG*dG*d[5mC]*dA*dG*dA*dG*d[5mC]*d[5mC]*k[5mC]*k[5mC]*eT) [compound 548628]”, under setting [4], the “% inhibition” value turned out to be 9%.
Consider “548363 (antisense e[5mC]*eA*kG*d[5mC]*dA*dG*dG*d[5mC]*dT*d[5mC]*dA*dA*dA*kG*kT*eG) [compound 548363]”, for which, under setting [7], the “% inhibition” value turned out to be 37%.
For the substance “548368 (eG*eT*kG*dT*dT*d[5mC]*dA*dT*dA*d[5mC]*dG*dG*dA*kA*kG*e[5mC]; antisense) [compound 548368]”, under setting [7], the “% inhibition” value came out at 59%.
Regarding “548676 (antisense eG*eT*kG*dA*dA*dT*d[5mC]*dA*dG*dA*dG*d[5mC]*dA*kG*kT*eG) [compound 548676]”, the “% inhibition” value under setting [4] was 63%.
Turning to “548280 (antisense e[5mC]*eT*k[5mC]*d[5mC]*d[5mC]*dT*d[5mC]*dT*dG*dT*dA*dA*dT*kG*kA*eT) [compound 548280]”, the “% inhibition” value under setting [5] is listed as 43%.
As to “548041 (eT*eG*kT*dG*dA*dG*dA*dA*dA*dG*dG*dT*dG*kT*kA*eT; antisense) [compound 548041]”, under setting [1], the “% inhibition” value amounted to 64%.
On to “547905 (eT*eA*k[5mC]*dT*d[5mC]*dA*dG*d[5mC]*dA*d[5mC]*d[5mC]*dT*dT*kT*kA*eT; antisense) [compound 547905]”, for which the “% inhibition” value is, setting by setting: (Table 20, HepaRG cells, electroporation with 1,000 nM antisense oligonucleotide, approximately 24 hours, PKK mRNA by RT-PCR (RTS3454), relative to untreated control cells) 20%; (Table 22 experiment, HepaRG cells, electroporation with 1,000 nM antisense oligonucleotide, approx. 24 hours, PKK mRNA by RT-PCR (RTS3454), relative to untreated control cells) 59%.
As for “547972 (antisense eT*e[5mC]*kA*dA*d[5mC]*dT*d[5mC]*d[5mC]*d[5mC]*dG*dG*dG*dT*kA*kA*eA) [compound 547972]”, the “% inhibition” value under setting [2] is 49%.
Turning to “548414 (antisense eT*e[5mC]*kT*dA*dA*d[5mC]*dA*dG*dT*dA*dT*d[5mC]*dA*k[5mC]*kT*eG) [compound 548414]”, under setting [8], the “% inhibition” value came out at 20%.
For “547788 (antisense eT*eA*kA*dG*dT*dT*dG*d[5mC]*dT*dT*dG*d[5mC]*dT*kT*kG*eA) [compound 547788]”, under setting [3], the “% inhibition” value is 49%.
For “548301 (e[5mC]*e[5mC]*kT*dA*dG*dT*dA*d[5mC]*dA*dA*dA*dG*dT*kG*kG*e[5mC]; antisense) [compound 548301]”, the “% inhibition” value under setting [5] was found to be 65%.
As for “548324 (eA*e[5mC]*kA*dT*dA*dA*dA*dT*dT*d[5mC]*d[5mC]*d[5mC]*d[5mC]*kA*k[5mC]*eA; antisense) [compound 548324]”, the “% inhibition” value under setting [7] is given as 29%.
In the case of “548661 (antisense eA*e[5mC]*kG*dA*d[5mC]*d[5mC]*d[5mC]*dA*d[5mC]*dT*d[5mC]*d[5mC]*dA*kT*kG*eT) [compound 548661]”, the “% inhibition” value under setting [4] amounted to 18%.
Consider “548685 (antisense eT*eA*kG*dT*d[5mC]*d[5mC]*dA*d[5mC]*dT*dA*d[5mC]*dA*d[5mC]*kA*kG*e[5mC]) [compound 548685]”, for which the “% inhibition” value under setting [4] is on record as 24%.
Consider “547838 (e[5mC]*eT*kT*d[5mC]*dA*dA*dG*dG*dA*dA*dT*dG*dT*k[5mC]*k[5mC]*eA; antisense) [compound 547838]”, for which the “% inhibition” value under setting [3] came out at 45%.
With “548386 (eA*eG*k[5mC]*d[5mC]*d[5mC]*dT*dG*dT*dT*dT*dG*dG*dT*kT*kT*eT; antisense) [compound 548386]”, the “% inhibition” value under setting [8] is reported as 0%.
In the case of “548240 (eA*eT*kA*d[5mC]*dT*d[5mC]*dG*d[5mC]*d[5mC]*dT*dT*dT*dG*kT*kG*eA; antisense) [compound 548240]”, under setting [5], the “% inhibition” value is recorded as 3%.
For the substance “548530 (antisense eA*eT*kA*dA*dT*dA*dG*dA*dG*dG*d[5mC]*dA*dG*k[5mC]*k[5mC]*eA) [compound 548530]”, under setting [9], the “% inhibition” value was found to be 50%.
For the substance “548532 (antisense eT*eA*kT*dT*dT*dA*dT*d[5mC]*d[5mC]*dG*dA*d[5mC]*d[5mC]*kT*k[5mC]*eT) [compound 548532]”, the “% inhibition” value under setting [9] turned out to be 34%.
Turning to “548056 (eG*eT*kG*dT*dA*dA*dT*dT*d[5mC]*dA*dA*dA*dG*kG*kA*eG; antisense) [compound 548056]”, the “% inhibition” value under setting [1] was determined as 40%.
With “548413 (antisense e[5mC]*eT*kA*dA*d[5mC]*dA*dG*dT*dA*dT*d[5mC]*dA*d[5mC]*kT*kG*eT) [compound 548413]”, the “% inhibition” value under setting [8] was 55%.
Take “548057 (e[5mC]*eA*kT*dA*dT*dT*dG*dG*dT*dT*dT*dT*dT*kG*kG*eA; antisense) [compound 548057]”: under setting [1], the “% inhibition” value is recorded as 49%.
As for “548207 (e[5mC]*eT*kG*dG*dT*d[5mC]*dA*dA*dT*d[5mC]*dT*dG*dA*k[5mC]*kT*eA; antisense) [compound 548207]”, the “% inhibition” value under setting [10] is listed as 60%.
For “548345 (antisense e[5mC]*eT*kA*dA*d[5mC]*dT*d[5mC]*d[5mC]*dA*dT*d[5mC]*dA*d[5mC]*kT*kG*e[5mC]) [compound 548345]”, the “% inhibition” value under setting [7] is recorded as 55%.
Consider “548587 (eT*eT*k[5mC]*dT*dG*dG*dG*dA*dA*dA*d[5mC]*dT*d[5mC]*kT*k[5mC]*eT; antisense) [compound 548587]”, for which the “% inhibition” value (HepaRG cells, 1,000 nM antisense oligonucleotide, Table 29) was 45%.
Consider “548001 (antisense eA*e[5mC]*k[5mC]*dA*dG*dA*dG*d[5mC]*dT*d[5mC]*d[5mC]*d[5mC]*dT*kT*kG*eT) [compound 548001]”, for which, under setting [1], the “% inhibition” value came to 64%.
For “548223 (eT*eA*kG*dA*d[5mC]*d[5mC]*d[5mC]*dA*dG*dA*dA*dT*d[5mC]*kA*kT*eG; antisense) [compound 548223]”, under setting [10], the “% inhibition” value was 50%.
In the case of “548463 (eT*e[5mC]*kA*d[5mC]*dT*dG*dT*dA*d[5mC]*d[5mC]*dT*dA*dT*kA*kT*e[5mC]; antisense) [compound 548463]”, the “% inhibition” value under setting [9] turned out to be 0%.
As to “548081 (e[5mC]*e[5mC]*k[5mC]*d[5mC]*dT*dT*d[5mC]*dT*dT*dT*dA*dT*dA*kG*k[5mC]*e[5mC]; antisense) [compound 548081]”, under setting [6], the “% inhibition” value stood at 64%.
“547796 (antisense eA*eT*k[5mC]*d[5mC]*d[5mC]*d[5mC]*dA*d[5mC]*d[5mC]*dT*d[5mC]*dT*dG*kA*kA*eG) [compound 547796]”: under setting [3], the “% inhibition” value came to 35%.
